According to patent US6894079B1, “Method for reducing free-radical induced injury” (priority 1998, dated 2005):

Tests used:
[1] = test system: Rat pulmonary artery endothelial cells (RPAECs); assay: H2O2 oxidative stress to endothelial cell monolayers, DCFDA fluorescence (confocal imaging); type: cell-based
Protocol: Rat pulmonary artery endothelial cells (RPAECs) were grown to confluence on optical grade culture dishes using standard technique. Cells were grown in Dulbecco's Modified Eagles Medium (high glucose) containing […], 0.8 M NaOH 10% serum (calf serum). Cells were incubated at 37° C. in 5% CO2, 95% relative humidity.
An oxidative stress indicator, dichlorofluorescein diacetate (DCFDA), was used to indicate the extent of injury to cells. DCFDA is a colorless substance that permeates through the cell membrane. Fresh DCFDA (5 uM) was prepared by solubilizing 2.4 mg DCFDA in 300 ul DMSO, then diluting the solution in […] Phosphate buffered saline (PBS), pH 7.4. […] Upon excitation by contact with free radicals, the dye DCFDA becomes fluorescent and the intensity of fluorescence is directly proportional to the degree of oxidative stress suffered by the cells. […]
Oxidative stress was initiated by the addition of the buffer containing 10 mM H2O2 in PBS to the cell monolayers. Oxidative stress to cells was measured by sequential imaging with a confocal laser microscope obtained at baseline and every 10 seconds for 120 seconds. The excitation filter was wet at 488 nm and the images were read at 515 nm. […]
Relative fluorescence of cell monolayers exposed to perflubron (open circles) and standard buffer (closed circles) are shown in FIG. 1. […] Data are expressed as mean+standard error of the mean. […]

[2] = AAPH peroxyl-radical oxidation of linoleic acid/SDS micelles, malondialdehyde formation; conditions: 2, 4, 20 and 50 mM AAPH; 5 ml emulsion plus 5 ml perflubron, room temperature (FIGS. 4A-D)
Protocol: This embodiment illustrates the effect of perfluorocarbon on fatty acid oxidation in a non-biological system (fatty acid micelles). Linoleic acid micelles were prepared as follows: Linoleic acid (3 mM) was emulsified into phosphate buffered saline (PBS) using the detergent sodium dodecyl sulfate (SDS, 250 μM). Linoleic acid/SDS micelles in PBS were formed by agitation and sonication of the resulting emulsion. The emulsion (5 ml) was exposed to perfluorocarbon by the addition of perflubron (PFOB, 5 ml, available commercially) to the system. Emulsions not exposed to perflubron served as controls. The emulsion/PFOB system (PFOB exposed micelles) and the non-exposed micelles (control) were agitated (xyz axial shaker) at room temperature. […] The degree of oxidative injury to the linoleic acid/SDS micelles was assessed by measuring malondialdehyde concentrations in aliquots taken from the emulsion phase at different time intervals. […] Malondialdehyde was measured using the method of Esterbauer and Cheeseman (Meth. Enzymol. 1990; 186:407-421). […] Absorbance changes were measured using a spectrophotometer (Beckman DU 650, Beckman Instruments) at 586 nm, against standard curves of 1,1,3,3-tetramethoxypropane at the end of the incubation period. […]

## FC(F)(F)C(F)(F)C(F)(F)C(F)(F)C(F)(F)C(F)(F)C(F)(F)C(F)(F)Br [PFOB, perfluorooctyl bromide]
[1]; 10 mM H2O2 in PBS, imaging every 10 seconds for 120 seconds, perflubron removed by aspiration or evaporation (FIGS. 1, 2 and 3)
  oxidative injury to cell monolayers: attenuates oxidative injury to cell monolayers
[1]; after 120 seconds of oxidative stress with 10 mM H2O2, cells pre-exposed 1 minute to 1 ml PFOB, then removed (C120, FIG. 2 and 3)
  DCFDA fluorescence (indicator of free radicals) in cell cultures: lack of fluorescence
[2]
  oxidative damage to fatty acid micelles (malondialdehyde concentration): attenuates oxidative damage to fatty acid micelles
